Data: ChEMBL document CHEMBL4811226, “Species Prioritization Based on Spectral Dissimilarity: A Case Study of Polyporoid Fungal Species” (J Nat Prod, 2021)
Calls of active or inactive are those of the source. The calls are words filed in the database; no cut-off is given here.

Each compound was assayed on HCT-116 (assay: Cytotoxicity against human HCT-116 cells assessed as reduction in cell viability measured after 48 hrs by MTS assay). Details: not given.
Type: functional, cell-based

SMILES	Activity
C=C1CC[C@H]2[C@](C)(COC(=O)[C@@H](CC(=O)O)[C@@H](OC[C@H]3C(=C)CC[C@H]4[C@](C)(COC(=O)[C@@H](CC(=O)O)[C@@H](OC[C@H]5C(=C)CC[C@H]6[C@](C)(CO)CCC[C@]56C)C(=O)OC)CCC[C@]34C)C(=O)OC)CCC[C@]2(C)[C@H]1CO[C@@H](C(=O)OC)[C@H](CC(=O)OC)C(=O)O	inactive
C=C1CC[C@H]2[C@@]3(C)CCC[C@]2(C)[C@H]1CO[C@@H](C(=O)OC)[C@H](CC(=O)O)C(=O)OC[C@]1(C)CCC[C@]2(C)[C@@H](CO[C@@H](C(=O)OC)[C@H](CC(=O)O)C(=O)OC3)C(=C)CC[C@@H]12	inactive
C=C1CC[C@H]2[C@](C)(COC(=O)[C@@H](CC(=O)OC)[C@@H](OC[C@H]3C(=C)CC[C@H]4[C@](C)(CO)CCC[C@]34C)C(=O)OC)CCC[C@]2(C)[C@H]1CO[C@@H](C(=O)OC)[C@H](CC(=O)OC)C(=O)OC	inactive
C=C1CC[C@H]2C(C)(C)CCC[C@]2(C)[C@H]1CO[C@@H](C(=O)OC)[C@H](CC(=O)OC)C(=O)OC	inactive
C=C1CC[C@H]2[C@@]3(C)CCC[C@]2(C)[C@H]1CO[C@@H](C(=O)OC)[C@H](CC(=O)O)C(=O)OC[C@]1(C)CCC[C@]2(C)[C@@H](CO[C@@H](C(=O)OC)[C@H](CC(=O)OC)C(=O)OC3)C(=C)CC[C@@H]12	inactive
C=C1CC[C@H]2[C@](C)(COC(=O)[C@@H](CC(=O)O)[C@@H](OC[C@H]3C(=C)CC[C@H]4[C@](C)(CO)CCC[C@]34C)C(=O)OC)CCC[C@]2(C)[C@H]1CO[C@@H](C(=O)OC)[C@H](CC(=O)O)C(=O)OC(C)C	inactive
C=C1CC[C@H]2[C@](C)(COC(=O)[C@@H](CC(=O)O)[C@@H](OC[C@H]3C(=C)CC[C@H]4[C@](C)(CO)CCC[C@]34C)C(=O)OC)CCC[C@]2(C)[C@H]1CO[C@@H](C(=O)OC)[C@H](CC(=O)O)C(=O)OC	inactive

Same assay, conditions: HCT-116, 48 h

SMILES	IC50 [µM]
C=C1CC[C@H]2[C@](C)(COC(=O)[C@@H](CC(=O)OC)[C@@H](OC[C@H]3C(=C)CC[C@H]4[C@](C)(CO)CCC[C@]34C)C(=O)OC)CCC[C@]2(C)[C@H]1CO[C@@H](C(=O)OC)[C@H](CC(=O)O)C(=O)OC	3.6
C=C1CC[C@H]2[C@](C)(COC(=O)[C@@H](CC(=O)O)[C@@H](OC[C@H]3C(=C)CC[C@H]4[C@](C)(CO)CCC[C@]34C)C(=O)OC)CCC[C@]2(C)[C@H]1CO[C@@H](C(=O)OC)[C@H](CC(=O)OC)C(=O)OC	4.3
